Measurements from PMC10060577, “Synthesis and physicochemical characterization of acyl myricetins as potential anti-neuroexocytotic agents” (Scientific Reports, 2023).
Like-named read-outs stand apart in the source and are kept apart here.

Assays:
[1] = system: hen egg chorioallantoic membrane; experiment: HET-CAM test (hen egg chorioallantoic membrane irritancy); format: in vivo, chicken; conditions: 2 mL of 1 mg·mL^−1 solution, images 1 min after addition; for HET-CAM Score: graded from 0 (no irritation) to 3 (strong irritation)
Description: The HET-CAM is used for detecting ophthalmic irritancy in vivo[35]. For the HET-CAM, fertilized eggs were obtained from a local market in Korea and incubated for 10 days (37.5 °C and 45% humidity), by maintaining autorotation at 90°·h^−1 to ensure proper development and viability of the embryos. After incubation, the upper shell was cut in a circular shape, without damaging the inner membrane. Immediately after cutting, the inner membrane was carefully removed with forceps, to avoid injury to the blood vessels, and 2 mL of acyl myricetin solutions were placed on the CAM. Prior to the treatment, the solutions were prepared by mixing 1.9 mL of PBS and 100 μL of DMSO dissolving acyl myricetins, to prevent sedimentation of the crystalline solute. A mixture of PBS (1.9 mL) and DMSO (100 μL), and 1 M NaOH aqueous solution were used as negative and positive controls, respectively. Next, by turning an LED flashlight at the bottom of eggshell, CAM images were obtained 1 min after samples addition.
Based on the CAM images, the severity of any hemorrhage, blood-coagulation, and hyperemia was graded from 0 (no irritation) to 3 (strong irritation) according to a previously developed scoring method. We analyzed the CAM images using ImageJ (http://rsb.info.nih.gov/ij/) to prevent arbitrary judgments with respect to the previous scoring method; then we selected blood vessels in the CAM images, and measured hemorrhage, blood-coagulation, and hyperemia as follows. First, the CAM images were loaded individually into ImageJ, cropped to a fixed size to exclude the shell, and converted to grayscale. The CAM images, grayscaled with red stack, were adjusted using the MidGrey method, and the area fraction (%Area) values of black pixels in the adjusted CAM images were measured and recorded.

[2] = Determination of 1-octanol/water partition coefficients (logP); format: physicochemical; conditions: 1-octanol/water (DDW); 1-octanol/DDW, 25 °C
Description: Values for logP were determined to quantify the lipophilicity or hydrophilicity of the separated acyl myricetins, using the previously reported method with slight modifications. After the addition of 1-octanol (500 μL) into 2 mL micro-tubes containing 1 mg of the separated acyl myricetins, the micro-tubes were vortexed for 1 min, followed by sonication (bath-type) for 5 min, and then 500 μL of DDW was added to the tubes. Next, the mixed solutions in the tubes were vortexed again for 5 min and phase-separated by centrifugation (3000 relative centrifugal force for 10 min at 25 °C). The 40 μL of upper layer (1-octanol) and 100 μL of lower layer (DDW) were collected and diluted with 1.96 mL of 1-octanol and 100 μL of DMSO, respectively. The solutes dissolved in the upper and lower layers were quantified based on the standard curves obtained from the UV/Vis-light absorbance spectra (250‒600 nm) using a microplate reader (Synergy H1; BioTek Instruments Inc., VT, USA; measuring interval of 3 nm, at 25 °C). Finally, the logP values were calculated as log(coctanol/cDDW), where coctanol and cDDW are the concentrations of the solutes in the upper and lower layers, respectively.

[3] = Neutral red uptake (NRU) cytotoxicity assay; format: cell-based; conditions: rat, PC-12 cells, 12 h incubation
Description: (§1) PC-12 cells, obtained from Korean Cell Line Bank (KCLB, Seoul, Korea), were cultured in media containing 84% (v/v) RPMI 1640 medium, 10% (v/v) heat-inactivated horse serum, 5% (v/v) heat-inactivated FBS, and 1% (v/v) antibiotic-antimycotic (100×) solution, under humidified conditions (37 °C, 5% CO2). The culture medium was refreshed every other day. Prior to further experiments, the viability of the cells in passages 1-5 was assessed using the trypan blue exclusion test. Harvested PC-12 cells (~ 80% confluency per well) were seeded into 96-well plates coated with type I-collagen and grown in the culture media for one day (37 °C, 5% CO2). Cells were treated with media containing the acyl […] incubated for 12 h. The media were aspirated, and cells were then incubated for 2 h with 0.33% (w/v) neutral red dissolved in the media. After the incubation, the neutral red media were carefully withdrawn, and cells were rinsed twice with PBS at 37 °C and dried for 1 h. Next, neutral red contained in the dried cells was extracted and solubilized with a solution of 50% (v/v) ethanol, 49% (v/v) DDW, and 1% (v/v) acetic acid, by incubating for 10 min. Absorbance of the neutral red-containing solution at 540 nm was recoded using the Synergy H1. Cell viability was determined based on the absorbance of treated cells compared to that of untreated cells (without acyl […]).

PC-12 cells = experiment: Neutral red uptake (NRU) cytotoxicity assay; format: cell-based; conditions: 12 h incubation
Description: as §1

[4] = system: differentiated PC-12 cells; experiment: Acetylcholine release assay; format: cell-based; conditions: 12 h incubation, read-out: EC50 (inhibition of acetylcholine release)
Description: PC-12 cells, obtained from Korean Cell Line Bank (KCLB, Seoul, Korea), were cultured in media containing 84% (v/v) RPMI 1640 medium, 10% (v/v) heat-inactivated horse serum, 5% (v/v) heat-inactivated FBS, and 1% (v/v) antibiotic-antimycotic (100×) solution, under humidified conditions (37 °C, 5% CO2). The culture medium was refreshed every other day. Prior to further experiments, the viability of the cells in passages 1-5 was assessed using the trypan blue exclusion test. Harvested PC-12 cells were seeded into 24-well plates coated with poly-D-[…] × 10^5 cells per well) and grown in the culture media for one day (37 °C, 5% CO2). […] GIBCO/Invitrogen) and incubated for 5 days. Then, the media were replaced with the low serum medium containing the acyl […] incubated for 12 h. Next, the acetylcholine released from the cells into the medium was quantified using an Acetylcholine Assay Kit (Fluorometric; Cell Biolabs, Inc., CA, USA) and the Synergy H1 (λex/λem, 530 nm/600 nm). Subsequently, using the Kit, the amount of released acetylcholine was determined by subtracting the basal level signal from the signal for sample-treated cells.

[5] = Stability assessment against oxidation in aqueous solution by UV/Vis absorbance spectra; format: physicochemical; conditions: PBS pH 7, 37 °C; for decay rate constant k: absorbance at 376 nm, exponential decay-plateau fitting
Description: To assess their stability in an aqueous environment at pH 7 and 37 °C, UV/Vis-light absorbance spectra of the separated acyl […] obtained using the Synergy H1 (BioTek Instruments Inc.; measuring interval of 3 nm, 25 °C), at a wavelength-range of 250-600 nm[34]. One hundred microliters of the separated esters (20 μg·mL^-1), dissolved in DMSO, were mixed in a micro-tube (2 mL) with 1.9 mL of phosphate buffered saline (PBS), pre-adjusted to pH 7 with 1 M HCl aqueous solution. After covering with a lid, the mixture was immediately incubated for 18 h in a heating shaking drybath (S08040; Thermo Scientific) at 37 °C, shaken at 700 rpm. […] The amount of non-oxidized acyl myricetin was determined, based on the absorbance ( abs ) at a wavelength of 376 nm at incubation time ( t ). An exponential decay-plateau fitting method was employed to determine decay rate constant values ( k , s^-1) for the acyl […] follows: ln(abs/abs0)=-[…]) where abs0 is the absorbance at the initiation of incubation and tp is the time in which the left side ( -kt ) reaches the plateau constant ( p ). The non-oxidized proportion of the esters, after all the incubation, was described as e^p . Monitoring the shift of specific peaks in the spectra for the acyl […] could be important for application in food and cosmetics because this can indirectly indicate color changes in the product, which would be unwelcomed to most of the customers. Therefore, the center of gravity in the spectra of the M esters was determined as follows, in order to monitor the shift of specific peaks Centerofgravitycg=∑(absiλi)/∑(absi) where absi is the absorbance at a specific wavelength ( λi , 300-400 nm). Based on the cg estimated during the incubations, the cg shifting rate ( k1 ) was determined using the two segment linear fitting curves as follows: […]1=[…] intercepts of linear curves for the left and right sides, respectively, t1 is the time that the left side ( k1t+cg1 ) takes to become the right side ( k2t+cg2 ), and k2 is an inclination of curve toward the right side.

| Molecule | HET-CAM Description [1] | HET-CAM Score [1] | logP at 5 min [2] | CC50 at 12 h [3] | CC50 (PC-12 cells) | EC50 ([4]; Rattus norvegicus) | decay rate constant k [5] | EC50 [4] | k value fold lower than that of myricetin [5] | times by which the myricetin cg shift is faster than that of the compound [5] |
| --- | --- | --- | --- | --- | --- | --- | --- | --- | --- | --- |
| [Na+].[OH-] [1 M NaOH, NaOH, reference compound] | Severe irritant | 3 |  |  |  |  |  |  |  |  |
| O=c1c(O)c(-c2cc(O)c(O)c(O)c2)oc2cc(O)cc(O)c12 [M, myricetin] | Non irritant | 0 | 1.34 ± 0.1 | 65.4 µM | 66.4 ± 10.9 µM | 5.36 ± 0.2 µM | 0.00037 s⁻¹ |  |  |  |
| dipropionyl-myricetin [MP2] | Non irritant | 0 |  |  |  |  | 0.00013 s⁻¹ | 3.58 ± 0.75 µM | 2.7 fold | 5.1 fold |
| monooctanoyl-myricetin [MO1] | Non irritant | 0 |  |  |  |  | 0.00012 s⁻¹ | 2.51 ± 0.89 µM | ~ 3.1 fold | ~ 2.3 fold |
| monopropionyl-myricetin [MP1] | Non irritant | 0 |  |  |  |  | 0.0002 s⁻¹ | 3.84 ± 1.08 µM | ~ 1.9 fold | ~ 2.4 fold |
